Assay results published in patent publication US9648880B2, “Antifungal agents and uses thereof” (University of Massachusetts, priority 2012, dated 2017).
“And” between values parts separate entries of the source, which are not always exact repeats. Equal entries are not always repeated.

Legend:
p300 = biological target: T1, p300 (Homo sapiens, UniProt Q09472); experiment: HAT-ThioGlo1 time course assay, p300; type: biochemical; settings: up to 100 μM
T1 construct: p300 catalytic domain (p300 amino acids 1195-1810; Fan, 2010); 6xHis (N); FLAG (N); made in house; host or cells: BL21 E. coli
T1 sequence (Q09472 1195-1810): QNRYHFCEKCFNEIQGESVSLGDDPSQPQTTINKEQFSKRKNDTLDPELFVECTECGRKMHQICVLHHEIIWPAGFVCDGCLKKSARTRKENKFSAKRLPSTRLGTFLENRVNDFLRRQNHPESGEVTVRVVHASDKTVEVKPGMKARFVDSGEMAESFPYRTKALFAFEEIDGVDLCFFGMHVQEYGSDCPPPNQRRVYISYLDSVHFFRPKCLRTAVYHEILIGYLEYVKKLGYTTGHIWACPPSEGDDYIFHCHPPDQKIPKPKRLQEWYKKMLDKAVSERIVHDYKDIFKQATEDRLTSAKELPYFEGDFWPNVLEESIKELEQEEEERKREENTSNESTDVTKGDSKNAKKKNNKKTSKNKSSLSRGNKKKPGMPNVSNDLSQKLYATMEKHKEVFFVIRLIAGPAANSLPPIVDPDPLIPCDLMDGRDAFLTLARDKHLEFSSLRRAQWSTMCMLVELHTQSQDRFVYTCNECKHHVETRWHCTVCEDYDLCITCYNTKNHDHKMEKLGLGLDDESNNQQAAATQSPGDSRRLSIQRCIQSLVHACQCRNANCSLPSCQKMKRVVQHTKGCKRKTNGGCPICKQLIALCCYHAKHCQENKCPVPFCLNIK

Rtt109-Vps75 = biological target: T2, Rtt109-Vps75 (Saccharomyces cerevisiae, UniProt Q07794); experiment: HAT-ThioGlo1 time course assay, Rtt109-Vps75; type: biochemical, S. cerevisiae; settings: IC50, 50 nM Rtt109-Vps75, 15 μM H3n21 peptide, 30 μM Ac-CoA
T2 construct: 6xHis (on one of the two proteins of the complex); made in house; host or cells: bacteria
T2 sequence (Q07794 1-436): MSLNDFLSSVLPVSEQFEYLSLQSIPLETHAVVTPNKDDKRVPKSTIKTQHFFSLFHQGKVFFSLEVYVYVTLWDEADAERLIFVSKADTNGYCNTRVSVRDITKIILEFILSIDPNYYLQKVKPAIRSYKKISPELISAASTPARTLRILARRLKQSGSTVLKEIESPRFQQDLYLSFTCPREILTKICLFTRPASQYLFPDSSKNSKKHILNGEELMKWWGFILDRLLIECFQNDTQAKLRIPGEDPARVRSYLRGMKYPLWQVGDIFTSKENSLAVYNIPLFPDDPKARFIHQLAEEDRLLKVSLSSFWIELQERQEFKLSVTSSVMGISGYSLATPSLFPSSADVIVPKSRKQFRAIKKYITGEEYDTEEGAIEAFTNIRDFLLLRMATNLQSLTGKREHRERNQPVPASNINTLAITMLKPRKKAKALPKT
T2 sequence (P53853 1-264 partner): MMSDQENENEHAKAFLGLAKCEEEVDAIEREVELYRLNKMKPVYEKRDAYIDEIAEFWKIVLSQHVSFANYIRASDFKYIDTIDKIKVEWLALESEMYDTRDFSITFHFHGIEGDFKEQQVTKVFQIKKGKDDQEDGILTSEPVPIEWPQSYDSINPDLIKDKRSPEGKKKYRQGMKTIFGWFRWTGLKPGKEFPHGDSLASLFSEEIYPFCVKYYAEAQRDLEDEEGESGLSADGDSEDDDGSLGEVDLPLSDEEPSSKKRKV

Gcn5 = biological target: T3, Gcn5 (Saccharomyces cerevisiae, UniProt Q03330); experiment: HAT-ThioGlo1 time course assay, Gcn5; type: biochemical, S. cerevisiae; settings: up to 100 μM
T3 construct: 6xHis (N); made in house; host or cells: BL21 E. coli
T3 sequence (Q03330 whole entry): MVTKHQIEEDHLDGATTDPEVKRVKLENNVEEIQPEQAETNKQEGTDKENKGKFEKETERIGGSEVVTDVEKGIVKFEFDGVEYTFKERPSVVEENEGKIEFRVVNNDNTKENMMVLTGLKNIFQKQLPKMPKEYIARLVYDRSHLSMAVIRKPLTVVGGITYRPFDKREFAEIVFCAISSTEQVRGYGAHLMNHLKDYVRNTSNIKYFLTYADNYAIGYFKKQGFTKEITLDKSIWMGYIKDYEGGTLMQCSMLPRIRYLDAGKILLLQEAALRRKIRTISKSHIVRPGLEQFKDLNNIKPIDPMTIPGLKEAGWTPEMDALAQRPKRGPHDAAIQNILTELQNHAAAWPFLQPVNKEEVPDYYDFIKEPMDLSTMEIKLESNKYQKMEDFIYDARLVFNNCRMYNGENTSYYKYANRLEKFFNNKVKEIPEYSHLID

CCCC1(c2ccccc2)NC(=O)N(CC(=O)N(C)Cc2c(F)cccc2Cl)C1=O (stereo not drawn) [KB7, N-[(2-chloro-6-fluorophenyl)methyl]-2-(2,5-dioxo-4-phenyl-4-propylimidazolidin-1-yl)-N-methylacetamide]
enzyme reaction rate, % activity (p300): ≥ 80% | IC50 (Rtt109-Vps75): 55.2 nM and ~56 nM | enzyme reaction rate, % activity (Gcn5): ≥ 80%
